{
  "source": "paper PMC6973020",
  "about": "“Quinoline‐Conjugated Ruthenacarboranes: Toward Hybrid Drugs with a Dual Mode of Action” (Chemmedchem, 2019)",
  "key": {"[1]": {"tested_on": "microtubule‐associated protein light chain 3B (LC3B)", "assay": "Western blot analysis of LC3B, LN229", "format": "cell-based, human", "settings": "LN229, IC50 dose", "procedure": "mouse microglial cell line BV‐2 was a kind gift from Dr. Irena Lavrnja, Institute for Biological Research “Siniša Stanković” (University of Belgrade). Cells were routinely cultivated in HEPES‐buffered RPMI‐ […]\nFCS, 2 mM L‐glutamine, 0.01% sodium pyruvate and antibiotics, at 37 °C in a humidified atmosphere with 5% CO2. Peritoneal resident macrophages (Mph) were collected from C57BL/6 mice, obtained from the animal facility at the Institute for Biological Research “Siniša Stanković” (University of Belgrade), via peritoneal lavage with ice‐cold PBS. Cells were counted and seeded in 96‐well plates and incubated overnight, as described above. Before treatment, non‐adherent cells were removed.\nIsolation of cells from animals were performed in accordance to local guidelines and approved by the local Institutional Animal Care and Use Committee (IACUC).\nStaining Protocols for Flow Cytometric Analysis. For AnnV/PI, AO and ApoStat staining, cells were treated with an IC50 dose of 3 or 4 for 72 h, then detached with trypsin and washed with PBS. […] Finally, cells were washed in PBS, resuspended in PBS (or AnnV‐binding buffer for AnnV/PI), and analysed. […] Cells were then washed, trypsinised, dissolved in PBS and analysed by CyFlow® Space Partec using the PartecFloMax® software (Partec GmbH, Münster, Germany).\nStaining Protocols for Fluorescence Microscopy. […]"}, "[2]": {"tested_on": "LN229 cells", "assay": "DAPI staining, fluorescence microscopy, LN229", "format": "cell-based, human", "settings": "LN229, 40 μM, 72 h", "procedure": "Flow cytometry. For gaining better insights into the mechanisms of action of the ruthenium complexes, MCF‐7 and LN229 cells incubated with an IC50 dose of 3 or 4, were analyzed via flow cytometry. Several staining protocols were carried out in parallel, in independent experiments: i) AnnV/PI for the detection of apoptotic cell death, ii) AO for the detection of acidic vacuoles, iii) ApoStat for checking caspase activation, iv) CFSE for detecting interference with cellular proliferation, and v) DAPI for the detection of morphological signs of apoptosis. Untreated cells or cells treated only with BSA (control) were also measured, as reference for BSA‐free and BSA‐containing drug formulations, respectively. […] Channels FL1 (green emission), FL2 (orange emission) and/or FL3 (dark red emission) were used for fluorescence detection, according to the specific staining agent. Sideward Scatter (SSC) for MCF‐7 cells treated with 4 or BSA−4 was also analyzed, with respect to the control, for detection of shifts of cell granularity. […]\nFCS, 2 mM L‐glutamine, 0.01% sodium pyruvate and antibiotics, at 37 °C in a humidified atmosphere with 5% CO2. […] Cells were counted and seeded in 96‐well plates and incubated overnight, as described above. […]\nStaining Protocols for Flow Cytometric Analysis. […] Finally, cells were washed in PBS, resuspended in PBS (or AnnV‐binding buffer for AnnV/PI), and analysed. […]"}},
  "data": [
    {"substance": "closo ‐[3‐(η^6‐p‐Cymene)‐1‐(quinolin‐8‐yl‐acetate)‐3,1,2‐RuC2B9H10] [Compound 4]", "values": [
      {"measurement": "expression of LC3B (western blot)", "setting": "[1]", "value": "significantly diminished"},
      {"measurement": "morphological features of apoptosis (DAPI)", "setting": "[2]", "value": "several typical morphological features of apoptosis"}
    ]}
  ]
}
